The METLIN SMRT retention time set (Domingo-Almenara et al. 2019)

experiment: gradient 5% acetonitrile 3 min, to 50% in 2 min, to 85% in 15 min, held 3 min, 100 µL/min; details: column: Zorbax Extend-C18 2.1 x 50 mm; eluents: water / acetonitrile, 0.1% formic acid
Method in brief: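 Pure standards were analyzed in mixtures of ~100 molecules using HPLC coupled to a quadrupole time-of-flight mass spectrometer, in both positive and negative ionization mode. Separation used a Zorbax Extend-C18 column (2.1 × 50 mm, 1.8 μm) at 100 μL/min, with water and acetonitrile each containing 0.1% formic acid. Dead and dwell volumes were 40 μL and 900 μL, and data were collected over 3 months. Retention time was read from computationally picked adduct peaks, each inspected manually.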

SMILES	RP-LC retention time [s]
CC(C)CNC(=O)CCc1nc2ccccc2n(CC(=O)NC(C)CCc2ccccc2)c1=O (stereo not drawn)	869
CCn1c(=O)c(N2CCC(NC(=O)Nc3ccccc3Br)CC2)nc2ccccc21	1030
CCOc1ccccc1NC(=O)C1CCN(S(=O)(=O)c2c(C)nn(-c3ccccc3)c2C)CC1	1030
CC(C(=O)N1CCN(C(=O)c2ccco2)CC1)n1c(=O)c(C(F)(F)F)nc2ccccc21 (stereo not drawn)	834
CCc1ccc(NC(=O)Cc2nnc3cc(-c4nc(C)no4)ccn23)cc1	780
Cc1ccc(N2CC(c3noc(-c4cc(F)ccc4F)n3)CC2=O)cc1 (stereo not drawn)	1000
COCCNC(=O)CCC1CCN(c2cc(NC3CC3)ncn2)CC1	572
O=C(NCc1cccs1)c1ccc2c(c1)ncn2CCN1CCCC1	577
Clc1ccc(-c2nnc(-c3cccnc3N3CCN(c4ccccn4)CC3)o2)cc1	710
CCCC(=O)NCc1c(-c2ccccc2)nc2n1CCS2	604
CCC(C(=O)NCCN1CCN(CC)CC1)n1c2ccccc2c2cnn(C)c(=O)c21 (stereo not drawn)	595
O=C1C2N=NN(Cc3nc(-c4ccc5c(c4)OCO5)no3)C2C(=O)N1c1ccc2c(c1)OCO2 (stereo not drawn)	899
COc1cc2c(cc1NC(=O)c1ccco1)n(C)c(=O)n2C	688
CCOc1ccc(NC(=O)Cn2cnc3nc(N4CCC(C(=O)NC5CC5)CC4)sc3c2=O)cc1	675
CCCS(=O)(=O)NCCn1c(C)cnc1-c1ccccc1	566
CCC1Oc2ccc(S(=O)(=O)N3CCC(C(=O)NCc4ccc(C)cc4)CC3)cc2NC1=O (stereo not drawn)	963
CCNC(=O)N1CCCC(Cn2cnc3cccnc32)C1 (stereo not drawn)	578
CCC(=O)N(C1CCOCC1)C1CCN(S(=O)(=O)c2ccc(C(F)(F)F)cc2)CC1	892
Nc1cc(C2CCN(S(=O)(=O)c3ccc(F)cc3F)CC2)no1	780
COc1cc(OC)cc(-n2nnc(-c3nsc(Nc4ccc(OC)c(OC)c4)n3)c2C)c1	933
CN(C)C(=O)c1n[nH]c2c1CN(C(=O)c1ccccc1C(F)(F)F)CC2	725
CCc1ccc2oc(C(=O)NCC(c3ccc(OC)cc3)N(C)C)cc(=O)c2c1 (stereo not drawn)	656

SMILES	RP-LC retention time [s]
CC(C)c1ccc(S(=O)(=O)N2CCCC2c2nc(-c3cccc(F)c3)no2)cc1 (stereo not drawn)	1270
CC(=O)c1ccc(NC(=O)Cc2csc3nc(-c4ccc(C)c(C)c4)cn23)cc1	795
Oc1ccc(-c2nc3ccc(Cl)cn3c2Nc2ccc(Cl)cc2)cc1	733
Cc1nc(C2CCOCC2)n(C2CCN(S(=O)(=O)c3ccc(C(C)(C)C)cc3)C2)n1 (stereo not drawn)	871
Cc1ccc(CNC(=O)CN2C(=O)CCc3cc(Br)ccc32)cc1	917
C[C@@H](NCCc1ccc(O)cc1)[C@@H](O)c1ccc(O)cc1	362
CC(C)S(=O)(=O)c1ccc(CC(=O)N2CCCC(c3nnc(C(F)(F)F)o3)C2)cc1 (stereo not drawn)	750
Cc1cccc(NC(=O)C2CCCN2S(=O)(=O)c2cc3c(cc2Cl)NC(=O)CO3)c1 (stereo not drawn)	822
CCOCCCNC(=O)Cc1c(C)n(C)c2nc(-c3ccccc3)nn2c1=O	649
N#Cc1ccc(NC(=O)Cc2cn3cc(F)ccc3n2)cc1	601
Cn1c(=O)c2nc(S(=O)(=O)CCC(=O)Nc3ccc(Br)cc3)n(C)c2n(C)c1=O	779
COc1ccc(-c2cc3c4nnc(SCC(=O)NCc5ccc(SC)cc5)n4ccn3n2)cc1	832
CCCOc1cc(N2CCN(C(=O)CC(C)C)CC2)nc(C)n1	597
CSc1ccc(Cc2nnc(NC(=O)c3nn(C)cc3C)o2)cc1	694
COc1ccc(-c2cc3c4nnc(CCC(=O)N5CCCC5)n4ccn3n2)cc1	686
Cc1sc(-c2cc(C(F)(F)F)[nH]n2)cc1S(=O)(=O)N1CCN(c2ccccc2)CC1	1110
CCOc1ccc(NC(=O)NCCC2CCN(S(=O)(=O)c3ccccc3)CC2)cc1	836
O=C(c1cc(O)c(O)c([N+](=O)[O-])c1)c1ccccc1F	716
CSc1ccc(-c2nc3ccccn3c2Nc2ccc3c(c2)OCO3)cc1	711
Cc1cccc(CNC(=O)C2CCN(C(=O)c3ncn4c3COC(c3ccccc3)C4)CC2)c1 (stereo not drawn)	879
Cc1cccc(Cn2ccnc2C(N)=O)c1	801
CN(C)CCn1ccc2ccn(CC(=O)NCc3ccccc3)c(=O)c21	606

SMILES	RP-LC retention time [s]
O=C(CSc1cc(N2CCCCC2)ncn1)Nc1cccc(Br)c1	1050
CC1Cn2cc(C(=O)NCCN3CCN(C)CC3)c(=O)c3c(Cl)ccc(c32)O1 (stereo not drawn)	590
NS(=O)(=O)c1ccc(NC(=O)CC2Sc3ccc(C(F)(F)F)cc3NC2=O)cc1 (stereo not drawn)	722
COc1ccc(NC(=O)CSc2ccc(N3CCCC(C(=O)NC4CC4)C3)nn2)c(OC)c1 (stereo not drawn)	642
O=C(NC1CC1)[C@@H]1C[C@H](Oc2ccccc2)CN1S(=O)(=O)c1cccc2nsnc12	828
CC(C)N(CC#CCNC(=O)Cc1ccccc1Cl)C(C)C	566
Cc1ccc2nc(SCc3noc(CCC(=O)Nc4nc(-c5ccccc5)cs4)n3)[nH]c2c1	802
CCc1nnc(-c2ccc3ccn(CC(=O)Nc4ccc5c(c4)OCCO5)c3c2)o1	811
Cc1csc(-c2cc(S(=O)(=O)NCCCc3ccccc3)c(C)s2)n1	1080
O=C(NC1CCCCC1)c1ccc(-c2csc(C3CC3)n2)cc1	1050
Cc1cccc(Sc2nccnc2N2CCC(C(=O)NCc3cccc(Cl)c3)CC2)c1	1150
COCCCNC(=O)c1ccc(OCc2nnc(C(=O)Nc3ccccc3F)s2)cc1	806
CCC(C)(C)C(=O)N1CCCC(c2nc(CCNC(=O)C3CC3)cs2)C1 (stereo not drawn)	767
CCCc1nc(C2CC(=O)N(c3ccc(OC)cc3)C2)no1 (stereo not drawn)	828
CCC(C(=O)N1CCN(c2cc(C)n3c(C)nnc3n2)CC1)c1ccccc1 (stereo not drawn)	650
CCCCN(C)C(=O)C1CCC(=O)N(c2cc(OC)c(OC)c(OC)c2)C1c1ccc(OC)cc1 (stereo not drawn)	768
Brc1ccc(-c2ccc(CNCc3ccc4c(c3)OCO4)o2)cc1	776
CCOc1ccc(NC(=O)c2cccc(N3CCNC(c4ccccc4)C3)n2)cc1 (stereo not drawn)	700
Cc1nnc2cc(N3CCN(Cc4cn[nH]c4-c4cccs4)CC3)cnn12	543
COc1ccc2[nH]c(=O)c(CCC(=O)NCCCN3CCCCC3C)cc2c1 (stereo not drawn)	589
COc1ccc(OC)c(NC(=O)NC2CCN(c3ccc(F)cc3)C2=O)c1 (stereo not drawn)	716
CCOC(=O)c1c(C)oc2ncnc(NCCc3c[nH]c4ccccc34)c12	1050

SMILES	RP-LC retention time [s]
Cc1nc(-c2noc(-c3ccncc3)n2)cn1CC(=O)N1CCc2ccccc21	678
CCNc1cc(N2CCC(CCC(=O)NCc3ccc(F)cc3F)CC2)ncn1	669
CCOc1ccc(-c2noc(Cc3nnc(-c4cccc(Cl)c4)o3)n2)cc1	1140
CCn1cc(C)c(C(=O)O)c1CC(=O)Nc1cc(C)ccc1C	866
CC(C)(C)c1csc(-c2csc(S(=O)(=O)NCc3ccc(Cl)cc3)c2)n1	1340
O=C(Cn1ccc2ccc(N3CCOCC3)nc21)N1CCN(c2ccc(F)cc2)CC1	898
CCCNc1cc(N2CCC(CCC(=O)Nc3ccc(C)cc3C)CC2)ncn1	733
CCCCN1CCN(C(=O)c2ccc(-c3ccnc(N4CCCC4)n3)cc2)CC1	573
Cc1cccc(-c2noc(C3CCCN3S(=O)(=O)c3ccc(C)c(Cl)c3)n2)c1 (stereo not drawn)	1270
O=S(=O)(Nc1ccc(Cn2cncn2)cc1)c1ccc(F)c(F)c1	721
COc1ccc(-c2csc(Nc3ccc(S(=O)(=O)Nc4cc(C)on4)cc3)n2)cc1	939
O=C(Nc1cccc(F)c1)N1CCN(c2cnn3c(C4CC4)nnc3c2)CC1	663
COc1ccc(NC(=O)Nc2cc(F)c3nc(N4CCOCC4)ccc3c2)cc1OC	938
COC(=O)c1ccc2c(=O)n(-c3cc(OC)cc(OC)c3)c(N3CCC(C(N)=O)CC3)nc2c1	736
Cc1ccc(CNC(=O)C2(C)CCCN(C(=O)NC(C)C)C2)cc1 (stereo not drawn)	766
O=C(c1[nH]nc2c1CCc1ccccc1-2)N1CCC(c2noc(-c3cccnc3)n2)C1 (stereo not drawn)	776
O=C(NC1CCN(c2cc(-c3cccs3)[nH]n2)C1)c1ccc(F)c(Cl)c1 (stereo not drawn)	797
CCOc1ccc(NC(=O)CN2C(=O)CC(c3cccs3)=Nc3ccccc32)cc1	951
Cc1cc(OCC(=O)NCc2ccc3c(c2)OCO3)nc(-c2ccc(F)cc2)n1	942
Cc1ccc2c(=O)c3c([nH]c2c1C)CCN(CC(=O)Nc1ccc(F)c(Cl)c1)C3	665
O=S1(=O)C[C@H](N2CCN(c3ncccn3)CC2)[C@@H](S(=O)(=O)c2cccs2)C1	719
CC1CCc2nc3ncn(CC(=O)Nc4cccc(Br)c4)c(=O)c3cc2C1 (stereo not drawn)	854
